# Laboratory results from patent publication US10596217B2, “Compositions containing a Withania somnifera extract incubated with a filamentous fungus of the Beauvaria genus” (Ethnodyne, priority 2015, dated 2020).
# Several values for one entry are separate records, joined by “and”; a condition that tells them apart may be missing. Equal values may be shown once.
# B1: BDNF: Brain Derived Growth Factor (BDNF) used as standard molecule (protein, UniProt P23560 19-247, looked up)
# Neurotrophic factor BDNF …: APMKEANIRGQGGLAYPGVRTHGTLESVNGPKAGSRGLTSLADTFEHVIEELLDEDQKVRPNEENNKDADLYTSRVMLSSQVPLEPPLLFLLEEYKNYLDAANMSMRVRRHSDPARRGELSVCDSISEWVTAADKKTAVDMSGGTVTVLEKVPVSKGQLKQYFYETKCNPMGYTKEGCRGIDKRHWNSQCRTTQSYVRALTMDSKKRIGWRFIRIDTSCVCTLTIKRGR
# What was measured:
# Format in all cases: cell-based, rat
# [1] = test system: TH positive dopaminergic neurons of primary mesencephalic culture; assay: Neuroprotective effect on TH positive dopaminergic neuron survival following exposure to 6-OHDA; conditions: 6-OHDA 20 μM, 24 h, toxin alone
# Experimental: This study investigated the neuroprotective effect of the plant extract of the invention on rat primary mesencephalic cultures following exposure to 6OHDA. […]
# The midbrains were dissociated by trypsinisation for 20 min at 37° C. (Trypsin 0.05%, EDTA 0.02% (Batch 7310713, PanBiotech). The reaction was stopped by the addition of Dulbecco's modified Eagle's medium (DMEM, Batch 9710913, PanBiotech) containing DNAase I grade II (0.1 mg/mL, Batch H131108, PanBiotech) and 10% of foetal calf serum (FCS, Batch 41Q7218K, Gibco). Cells were then mechanically dissociated by 3 passages through a 10 mL pipette. Cells were then centrifuged at 180×g for 10 min at +4° C. on a layer of BSA (3.5%) in L15 medium. The supernatant was discarded and the cell pellets were re-suspended in a defined culture medium consisting of Neurobasal (Batch 1576979, Invitrogen, France) supplemented with 2% of B27 (Batch 1589889, Invitrogen), 2 mM of L-glutamine (Batch 8150713, PanBiotech), 2% of PS solution, 10 ng/mL of Brain-derived neurotrophic factor (Batch H140108, PanBiotech) and 1 ng/mL of Glial-Derived Neurotrophic Factor (Batch H130917, Pan Biotech) Viable cells were counted in a Neubauer cytometer using the trypan blue exclusion test. […]
# [2] = test system: TH positive dopaminergic neurons of primary mesencephalic culture; assay: Neuroprotective effect on TH positive dopaminergic neuron survival following exposure to MPP+; conditions: MPP+ 4 μM, 48 h
# Experimental: This study investigated the neuroprotective effect of the plant extract of the invention on rat primary mesencephalic cultures following exposure to 1-methyl-4-phenyl pyridinium (MPP^+).
# In such assay, […] (BDNF) was used as standard molecule.
# (§1) The mesencephalic neurons were cultivated as in preceding example.
# On day 6 of culture, the medium was removed and fresh medium was added, without or with MPP^+ (Batch 092M4729V, Sigma, France) at 4 μM diluted in control medium. 6 wells per condition were assessed.
# (§2) The cells were fixed, washed, permeabilized and non-specific sites were blocked.
# The immunolabeled cultures were automatically examined with ImageXpress (Molecular Devices, United Kingdom) equipped with a LED at ×10 magnification. For each condition (6 culture wells), 20 automatically fields per well (representing ˜80% of the total surface of the well) were analyzed. The total number of TH neurons was automatically analyzed using MetaXpress software (Molecular Devices).
# Data were expressed in percentage of control conditions (no MPP^+=100%) in order to express the MPP^+ injury. All values were expressed as mean+/−SEM (s.e.mean) of the 6 wells with statistical analyses on the different conditions (ANOVA followed by Dunnett's test when allowed, using GraphPad Prism software). […]
# [3] = test system: TH positive dopaminergic neurons of primary mesencephalic culture; assay: Neuroprotective effect on TH positive dopaminergic neuron survival following exposure to rotenone; conditions: rotenone 10 nM, 24 hours, toxin alone
# Experimental: as §1, §2
# For each condition (6 culture wells), 20 automatically fields per well (representing ˜80% of the total surface of the well) were analyzed. The total number of TH neurons was automatically analyzed using MetaXpress software (Molecular Devices).
molecule,measurement,setting,value
"NCCc1cc(O)c(O)cc1O [Composition 6-OHDA, 6-hydroxydopamine]",cell death of TH positive neurons induced by the toxin,[1],> 25%
"C[n+]1ccc(-c2ccccc2)cc1 [MPP^+, 1-methyl-4-phenyl pyridinium]",cell death of TH positive neurons induced by the toxin,[2]; toxin alone,> 35% and > 30%
"C=C(C)[C@H]1Cc2c(ccc3c2O[C@@H]2COc4cc(OC)c(OC)cc4[C@@H]2C3=O)O1 [Rotenone, rotenone]",cell death of TH positive neurons induced by the toxin,[3],~40%
B1,protection from MPP+ induced injuries,[2]; 50 ng/mL,able to significantly protect cells
